Consider 1 compound from patent publication US6515025B2, “Use of ethynyl alanine amino diol compounds to inhibit enzymatic conversion of angiotensinogen to angiotensin I” (Pharmacia Corporation, priority 1991, dated 2003).

Where “and” joins values, the source holds several entries; their conditions need not be identical. Equal values may be shown once. Read-outs that look alike come from different tables or passages of the source.

The subject of this assay is Plasma Renin Activity (PRA). Put plainly: Marmoset plasma renin activity (PRA) reduction on oral administration. To be noted: 0.1 MPK, IG; for inhibition at 0.1 mg/kg: Primates, po. Type of assay: in vivo, Marmoset monkeys (Callithrix jacchus). How it is done:
The oral activity of renin inhibitor compounds was determined in vivo in Marmoset monkeys using the following procedure. Common Marmoset monkeys (Callithrix jacchus, Charles River, both sexes, body weight 300-400 g) were placed on a modified high-protein low-sodium diet (Purina, St. Louis, Mo.) for 1 week. About 24 hours prior to the administration of test compound, Lasix (5 mg/kg, im) was given. On the day of the test, the animal was anesthetized with isoflurane, body weight recorded, and a baseline blood sample taken. Then, test compound was given intragastrically and blood samples were taken in K-EDTA for plasma renin activity at appropriate time intervals. The PRA was determined by using the protocol outlined below. Results are expressed in terms of PRA at various time intervals both before and after compound administrations (“Pre” means pretreatment levels before compound administrations). Also included is percent inhibition (% INH from pretreatment levels).
I. Angiotensin I Generation
25 ml of the above reaction mixtures, in duplicate, were incubated at 37° C. or 0° C. for 2 hours.
II. Determination of Angiotensin I Concentrations
Angiotensin I (AI) concentrations were determined by radioimmunoassays with a commercial kit from NEN Co.
III. Calculation of Plasma Renin Activity
PRA (ng AI/ml/hr)=(AI at 37°−AI at 0°)/2 hr.

On to `C#CC[C@H](NC(=O)C(CC(=O)N(C)CCN(C)C)Cc1ccccc1)C(=O)NC(CC1CCCCC1)[C@@H](O)C(O)CC(C)C` (relative stereo) [Example 1, N1-[1R*-[[[1S,1R*-(cyclohexylmethyl)-2S*,3R*-dihydroxy-5-methylhexyl]amino]carbonyl]-3-butynyl]-N4-[2-(dimethylamino)ethyl]-N4-methyl-2S*-(phenylmethyl)butanediamide], for which the “% INH (from pretreatment PRA)” value was 76.6% and 95.6% (60 min, individual monkeys); 91.1% and 71.5% and 94.2% (120 min, individual monkeys); 89.8% and 67.8% and 45% (240 min, individual monkeys). Moreover, the PRA was 2.8 ngAI/ml/hr and 16.4 ngAI/ml/hr and 4 ngAI/ml/hr (60 min from dosing, individual monkeys); 4.1 ngAI/ml/hr and 20 ngAI/ml/hr and 5.2 ngAI/ml/hr (120 min from dosing, individual monkeys); 9.2 ngAI/ml/hr and 14.8 ngAI/ml/hr and 38.7 ngAI/ml/hr (240 min from dosing, individual monkeys); 45.8 ngAI/ml/hr and 70.2 ngAI/ml/hr and 90.1 ngAI/ml/hr (Pre (pretreatment level), individual monkeys). Further, the inhibition at 0.1 mg/kg reads like this: (60 min, individual monkeys, read-out: % INH (from pretreatment PRA)) 93.8%; (1 h, 60 min, mean of monkeys A-C, read-out: MEAN % INH) 88.7 ± 6%; (2 h, 120 min, mean of monkeys A-C, read-out: MEAN % INH) 85.6 ± 7%; (4 h, 240 min, mean of monkeys A-C, read-out: MEAN % INH) 67.5 ± 13%.
